Test results reported in ChEMBL document CHEMBL5120789, “Aspulvins A-H, Aspulvinone Analogues with SARS-CoV-2 Mpro Inhibitory and Anti-inflammatory Activities from an Endophytic Cladosporium sp” (J Nat Prod, 2022).
Activity calls are given as the source filed them. The rule behind the calls is not given here.

How the values were obtained:
J774.1 [1] = assay: Anti-inflammatory activity against mouse J774A.1 macrophage assessed as reduction in LPS-induced LDH release incubated for 1 hr in presence of nigericin by LDH assay; format: functional, cell-based; conditions: J774.1, 1 h
J774.1 [2] = assay: Anti-inflammatory activity against mouse J774A.1 macrophage assessed as reduction in LPS-induced LDH release at 10 uM incubated for 1 hr in presence of nigericin by LDH assay; format: functional, cell-based
[3] = biological target: Replicase polyprotein 1ab (Severe acute respiratory syndrome coronavirus 2) (UniProt P0DTD1); assay: Inhibition of SARS-CoV-2 MPro at 10 uM incubated for 5 mins by FRET assay
J774.1 [4] = assay: Anti-inflammatory activity against mouse J774A.1 macrophage assessed as reduction in LPS-induced cleaved casp-1 expression at 0.625 to 2.5 uM incubated for 1 hr in presence of nigericin by Western blot analysis; format: functional, cell-based; conditions: dose 0.625-2.5 µM
J774.1 [5] = assay: Anti-inflammatory activity against mouse J774A.1 macrophage assessed as reduction in LPS-induced pyroptosis cells at 0.625 to 2.5 uM incubated for 1 hr in presence of nigericin by PI/Hoechst 33342 staining based inverted fluorescence microscopic analysis; format: functional, cell-based; conditions: dose 0.625-2.5 µM, DDE = dose-dependent effect
J774.1 [6] = assay: Anti-inflammatory activity against mouse J774A.1 macrophage assessed as reduction in LPS-induced IL-1beta maturation at 0.625 to 2.5 uM incubated for 1 hr in presence of nigericin by Western blot analysis; format: functional, cell-based; conditions: dose 0.625-2.5 µM

Row | Structure (SMILES) | IC50 (J774.1 [1]) [µM] | inhibition (J774.1 [2]) | inhibition [3] | Activity (J774.1 [4]) | Activity (J774.1 [5]) | Activity (J774.1 [6])
1 | CC(C)=CCc1cc(/C=C2\OC(=O)C(c3ccc(O)cc3O)=C2O)ccc1O | 2.4 | Active | Active |  |  | 
2 | CC(C)=CCc1cc(/C=C2\OC(=O)C(c3cc(CC=C(C)C)c(O)cc3O)=C2O)ccc1O | 3 | Active | Active |  |  | 
3 | CC(C)(O)C1Cc2cc(/C=C3\OC(=O)C(c4cc5c(cc4O)OC(C)(C)C(O)C5)=C3O)ccc2O1 (stereo not given) | 0.7 | Active | Active | Active | Dde | Active
4 | CC(C)=CCc1cc(/C=C2\OC(=O)C(c3cc4c(cc3O)OC(C)(C)C(O)C4)=C2O)ccc1O (stereo not given) | 4.2 | Active | Active |  |  | 
5 | CC(C)=CCc1cc(C2=C(O)/C(=C/c3ccc(O)c(CC(O)C(C)(C)O)c3)OC2=O)c(O)cc1O (stereo not given) | 7.4 | Active | Active |  |  | 
6 | CC(C)=CCc1cc(/C=C2\OC(=O)C(c3cc(CCC(C)(C)O)c(O)cc3O)=C2O)ccc1O | 3.3 | Active | Active |  |  | 
7 | CC(C)=CCc1cc(C2=C(O)/C(=C/c3ccc4c(c3)C[C@H](C(C)(C)O)O4)OC2=O)c(O)cc1O | 4.9 | Active | Active |  |  | 
8 | CC(C)=CCc1cc(C2=C(O)/C(=C/c3ccc(O)c(CCC(C)(C)O)c3)OC2=O)c(O)cc1O | 3.1 | Active | Active |  |  | 
9 | CC(C)=CCc1cc(/C=C2\OC(=O)C(c3cc4c(cc3O)OC(C)(C)CC4)=C2O)ccc1O | 0.8 | Active | Active |  |  | 
10 | CC1(C)Oc2ccc(/C=C3\OC(=O)C(c4cc5c(cc4O)OC(C)(C)C(O)C5)=C3O)cc2CC1O (stereo not given) |  |  | Active |  |  | 
11 | CC(C)=CCc1cc(C2=C(O)/C(=C/c3ccc4c(c3)CC(O)C(C)(C)O4)OC2=O)c(O)cc1O (stereo not given) | 2.8 | Active | Active |  |  | 
12 | CC(C)(O)C(O)Cc1cc(/C=C2\OC(=O)C(c3cc4c(cc3O)OC(C)(C)C(O)C4)=C2O)ccc1O (stereo not given) |  |  | Active |  |  | 
